From ChEMBL document CHEMBL1201862, “PubChem BioAssay data set” (2004)
Calls of active or inactive are those of the source.

Columns and labels:
[1] = target: Luciferin 4-monooxygenase (Photinus pyralis, UniProt P08659); experiment: inhibition of purified Photinus pyralis luciferase – biochemical, luminescence, dose response (AID 1891)
[2] = Luminescence Cell-Based Dose Response HTS to Identify Inhibitors of 5'UTR Stem-Loop Driven Prion Protein mRNA Translation in H4 Neuroglioblastoma Cells. [Related pubchem assays: 1827 (Project Summary), 1813 (Primary HTS)]; format: functional
[3] = viability loss in HEK293 cells – cell-based, plate reader, cherry-picked samples, cytotoxicity control, dose response (AID 743446); format: functional
[4] = alpha-synuclein stem-loop luciferase translation blockers – H4 neuroglioma cells, luminescence, confirmation (AID 1988); format: functional, cell-based
Beta-galactosidase = Beta-galactosidase (Escherichia coli, UniProt Q8VNN2); experiment: PubChem AID 485352; format: functional
Chain of Beta-galactosidase (Q8VNN2 whole entry): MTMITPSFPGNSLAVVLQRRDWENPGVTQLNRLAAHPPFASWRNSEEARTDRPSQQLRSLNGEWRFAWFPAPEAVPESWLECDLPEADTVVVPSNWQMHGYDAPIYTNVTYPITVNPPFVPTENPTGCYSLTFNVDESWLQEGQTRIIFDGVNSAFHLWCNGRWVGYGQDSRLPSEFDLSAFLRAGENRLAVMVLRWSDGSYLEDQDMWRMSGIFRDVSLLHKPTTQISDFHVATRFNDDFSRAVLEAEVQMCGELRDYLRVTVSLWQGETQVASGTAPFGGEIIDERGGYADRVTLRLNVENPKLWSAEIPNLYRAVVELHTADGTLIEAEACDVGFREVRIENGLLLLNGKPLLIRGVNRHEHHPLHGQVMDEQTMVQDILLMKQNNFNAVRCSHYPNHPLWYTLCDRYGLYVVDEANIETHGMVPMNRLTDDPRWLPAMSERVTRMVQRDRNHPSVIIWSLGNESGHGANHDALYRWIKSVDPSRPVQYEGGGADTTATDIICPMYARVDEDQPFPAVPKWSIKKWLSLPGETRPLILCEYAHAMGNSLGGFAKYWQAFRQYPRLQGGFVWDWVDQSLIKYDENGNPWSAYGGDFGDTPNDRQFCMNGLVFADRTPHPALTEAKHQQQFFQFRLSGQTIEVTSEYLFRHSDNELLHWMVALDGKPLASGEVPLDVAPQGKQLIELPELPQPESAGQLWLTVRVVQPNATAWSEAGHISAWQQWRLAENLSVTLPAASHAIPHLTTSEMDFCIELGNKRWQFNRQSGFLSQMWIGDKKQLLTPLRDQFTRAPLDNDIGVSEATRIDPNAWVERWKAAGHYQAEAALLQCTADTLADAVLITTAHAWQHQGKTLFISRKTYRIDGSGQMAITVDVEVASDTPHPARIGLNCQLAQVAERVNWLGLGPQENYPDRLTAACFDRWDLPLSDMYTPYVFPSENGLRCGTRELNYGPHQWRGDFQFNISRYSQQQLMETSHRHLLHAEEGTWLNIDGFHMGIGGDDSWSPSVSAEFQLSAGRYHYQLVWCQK

[5] = target: T1, Microphthalmia-associated transcription factor (Homo sapiens, UniProt O75030); experiment: reducers of TRPM1 reporter luminescence, concentration series – cell-based, SK-MEL-5, cherry-picked, set 3, MITF inhibitor project, dose response (AID 493073); format: functional;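 note: SK-MEL-5 melanoma cells with luciferase driven by the MITF target TRPM1 promoter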
T1 sequence (O75030 whole entry): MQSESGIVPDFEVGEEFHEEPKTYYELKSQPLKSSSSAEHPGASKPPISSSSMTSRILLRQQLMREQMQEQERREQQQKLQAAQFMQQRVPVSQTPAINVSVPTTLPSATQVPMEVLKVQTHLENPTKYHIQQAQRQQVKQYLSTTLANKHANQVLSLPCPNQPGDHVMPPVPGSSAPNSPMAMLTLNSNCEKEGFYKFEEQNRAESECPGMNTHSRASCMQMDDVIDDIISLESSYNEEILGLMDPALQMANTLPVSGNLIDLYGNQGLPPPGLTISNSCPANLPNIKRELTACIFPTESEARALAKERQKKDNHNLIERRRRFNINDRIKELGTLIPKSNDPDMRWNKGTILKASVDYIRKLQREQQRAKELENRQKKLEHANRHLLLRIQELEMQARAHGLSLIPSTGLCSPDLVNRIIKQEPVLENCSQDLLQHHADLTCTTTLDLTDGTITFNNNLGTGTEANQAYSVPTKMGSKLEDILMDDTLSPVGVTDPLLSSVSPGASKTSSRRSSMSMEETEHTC

[6] = toxicity toward HepG2 liver cells – cell-based, plate reader, cherry-pick, antagonist series, cytotoxicity control, dose response (AID 743416); format: functional
[7] = blockade of melanocortin 4 receptor signaling – cell-based, plate reader, cherry pick, counter-screen for LGR2 antagonist project, dose response (AID 743444); format: functional;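 note: transfected HEK 293 cells stimulated with alpha-MSH peptide; potency of inhibitors of the alpha-MSH evoked signal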
A-375 = experiment: proliferation inhibition in MITF-low A375 cells – cell-based, cherry-pick samples, set 2, counter-screen for MITF modulator project, dose response (AID 540335); format: functional; conditions: Homo sapiens
[8] = target: T2, Type-1 angiotensin II receptor (Homo sapiens, UniProt P30556); experiment: antagonism of angiotensin II type 1 receptor – cell-based, uHTS hits, selectivity assay for APJ receptor antagonist project, dose response (AID 463214); format: functional;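 note: antagonist potency against angiotensin II stimulated AT1 response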
T2 sequence (P30556 whole entry): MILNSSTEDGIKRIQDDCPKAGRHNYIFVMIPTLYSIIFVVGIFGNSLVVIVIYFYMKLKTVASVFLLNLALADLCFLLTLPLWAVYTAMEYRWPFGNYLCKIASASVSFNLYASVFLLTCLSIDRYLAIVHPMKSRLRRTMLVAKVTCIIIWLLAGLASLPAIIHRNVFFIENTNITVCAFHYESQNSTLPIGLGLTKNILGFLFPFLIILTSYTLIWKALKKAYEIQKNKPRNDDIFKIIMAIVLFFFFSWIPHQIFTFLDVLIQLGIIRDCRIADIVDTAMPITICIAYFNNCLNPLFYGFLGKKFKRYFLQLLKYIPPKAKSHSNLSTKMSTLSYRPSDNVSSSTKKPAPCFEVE

[9] = blockers of bursicon-stimulated LGR2 cAMP reporter – cell-based, HEK293, CRE-luciferase reporter, cherry pick, set 2, dose response (AID 743343); format: functional;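 note: transfected cells were stimulated with diluted bursicon conditioned medium after compound addition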
[10] = Luminescence Cell-Based Dose Confirmation HTS to Identify Inhibitors of Platelet Dense Granule Release. [Related pubchem assays: 1663 (Primary HTS), 1678 (Summary of Project)]; format: functional
[11] = A549 cell cytotoxicity, dose response, cytotoxicity control, plate reader, cherry-pick, antagonist series (AID 743412); format: functional, cell-based
Caspase-7 = Caspase-7 (Homo sapiens, UniProt P55210); experiment: caspase-7 enzyme inhibition, selectivity check – biochemical, DEVD-R110 fluorescence, cherry-pick, selectivity assay for caspase-6 inhibitor project, dose response (AID 743295); format: functional
Chain of Caspase-7 (P55210 24-198 limits assumed): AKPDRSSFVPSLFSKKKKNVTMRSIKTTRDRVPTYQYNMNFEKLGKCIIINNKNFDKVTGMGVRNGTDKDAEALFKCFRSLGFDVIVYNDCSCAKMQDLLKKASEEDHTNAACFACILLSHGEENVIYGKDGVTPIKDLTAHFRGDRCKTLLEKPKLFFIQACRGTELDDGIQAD
Chain of Caspase-7 (P55210 207-303 limits assumed): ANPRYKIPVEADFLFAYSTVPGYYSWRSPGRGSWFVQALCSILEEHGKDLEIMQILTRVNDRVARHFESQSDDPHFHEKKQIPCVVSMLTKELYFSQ

[12] = target: T3, Beta-adrenergic receptor kinase 1 (Homo sapiens, UniProt P25098); experiment: aptamer displacement from bead-bound GRK2 – biochemical, cherry pick 1, bead flow cytometry, dose response (AID 504500)
T3 sequence (P25098 whole entry, the tested form may be a part): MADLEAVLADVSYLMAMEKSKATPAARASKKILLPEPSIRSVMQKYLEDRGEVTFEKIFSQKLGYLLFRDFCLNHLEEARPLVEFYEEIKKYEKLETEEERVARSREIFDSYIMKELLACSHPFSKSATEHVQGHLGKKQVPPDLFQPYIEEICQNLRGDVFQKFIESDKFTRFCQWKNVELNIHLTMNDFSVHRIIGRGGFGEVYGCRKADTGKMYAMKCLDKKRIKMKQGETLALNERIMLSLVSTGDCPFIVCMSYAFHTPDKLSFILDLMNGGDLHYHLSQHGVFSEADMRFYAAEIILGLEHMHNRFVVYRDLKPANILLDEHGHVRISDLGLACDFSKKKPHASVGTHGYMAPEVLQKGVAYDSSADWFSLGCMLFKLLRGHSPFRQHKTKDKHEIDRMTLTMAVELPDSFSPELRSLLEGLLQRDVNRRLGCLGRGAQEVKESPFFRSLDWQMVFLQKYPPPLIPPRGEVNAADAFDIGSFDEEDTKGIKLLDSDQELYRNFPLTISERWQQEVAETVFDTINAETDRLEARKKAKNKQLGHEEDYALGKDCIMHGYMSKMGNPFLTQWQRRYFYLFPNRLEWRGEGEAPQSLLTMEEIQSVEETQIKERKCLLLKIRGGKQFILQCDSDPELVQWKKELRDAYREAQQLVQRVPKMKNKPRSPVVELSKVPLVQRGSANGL

[13] = target: T4, Carboxy-terminal domain RNA polymerase II polypeptide A small phosphatase 1 (Homo sapiens, UniProt Q9GZU7); experiment: CTDSP1 inhibitors, concentration-response, biochemical, absorbance readout, ultra-high-throughput screen actives (AID 540297); format: functional
T4 sequence (Q9GZU7 whole entry): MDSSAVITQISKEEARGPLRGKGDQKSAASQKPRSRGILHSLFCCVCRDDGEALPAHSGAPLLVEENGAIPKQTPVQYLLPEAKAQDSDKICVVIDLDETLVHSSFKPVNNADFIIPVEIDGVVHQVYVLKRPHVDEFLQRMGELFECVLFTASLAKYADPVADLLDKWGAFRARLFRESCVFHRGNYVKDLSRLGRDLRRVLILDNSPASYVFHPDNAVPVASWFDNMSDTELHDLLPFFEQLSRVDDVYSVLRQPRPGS

Protein S100-A4 = Protein S100-A4 (Homo sapiens, UniProt P26447); experiment: human S100A4 peptide interaction inhibition curves – biochemical, fluorescence polarization, cherry-picked hits, dose response (AID 687001); format: functional
Chain of Protein S100-A4 (P26447 whole entry): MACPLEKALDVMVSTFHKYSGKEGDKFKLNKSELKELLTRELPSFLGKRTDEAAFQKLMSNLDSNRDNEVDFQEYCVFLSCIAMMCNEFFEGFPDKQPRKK

[14] = target: T5, Apoptotic protease-activating factor 1 (Homo sapiens, UniProt O14727); experiment: activation of Apaf-1 mediated apoptosis – fluorescent, uHTS hits, dose response (AID 588554); format: functional
T5 sequence (O14727 whole entry): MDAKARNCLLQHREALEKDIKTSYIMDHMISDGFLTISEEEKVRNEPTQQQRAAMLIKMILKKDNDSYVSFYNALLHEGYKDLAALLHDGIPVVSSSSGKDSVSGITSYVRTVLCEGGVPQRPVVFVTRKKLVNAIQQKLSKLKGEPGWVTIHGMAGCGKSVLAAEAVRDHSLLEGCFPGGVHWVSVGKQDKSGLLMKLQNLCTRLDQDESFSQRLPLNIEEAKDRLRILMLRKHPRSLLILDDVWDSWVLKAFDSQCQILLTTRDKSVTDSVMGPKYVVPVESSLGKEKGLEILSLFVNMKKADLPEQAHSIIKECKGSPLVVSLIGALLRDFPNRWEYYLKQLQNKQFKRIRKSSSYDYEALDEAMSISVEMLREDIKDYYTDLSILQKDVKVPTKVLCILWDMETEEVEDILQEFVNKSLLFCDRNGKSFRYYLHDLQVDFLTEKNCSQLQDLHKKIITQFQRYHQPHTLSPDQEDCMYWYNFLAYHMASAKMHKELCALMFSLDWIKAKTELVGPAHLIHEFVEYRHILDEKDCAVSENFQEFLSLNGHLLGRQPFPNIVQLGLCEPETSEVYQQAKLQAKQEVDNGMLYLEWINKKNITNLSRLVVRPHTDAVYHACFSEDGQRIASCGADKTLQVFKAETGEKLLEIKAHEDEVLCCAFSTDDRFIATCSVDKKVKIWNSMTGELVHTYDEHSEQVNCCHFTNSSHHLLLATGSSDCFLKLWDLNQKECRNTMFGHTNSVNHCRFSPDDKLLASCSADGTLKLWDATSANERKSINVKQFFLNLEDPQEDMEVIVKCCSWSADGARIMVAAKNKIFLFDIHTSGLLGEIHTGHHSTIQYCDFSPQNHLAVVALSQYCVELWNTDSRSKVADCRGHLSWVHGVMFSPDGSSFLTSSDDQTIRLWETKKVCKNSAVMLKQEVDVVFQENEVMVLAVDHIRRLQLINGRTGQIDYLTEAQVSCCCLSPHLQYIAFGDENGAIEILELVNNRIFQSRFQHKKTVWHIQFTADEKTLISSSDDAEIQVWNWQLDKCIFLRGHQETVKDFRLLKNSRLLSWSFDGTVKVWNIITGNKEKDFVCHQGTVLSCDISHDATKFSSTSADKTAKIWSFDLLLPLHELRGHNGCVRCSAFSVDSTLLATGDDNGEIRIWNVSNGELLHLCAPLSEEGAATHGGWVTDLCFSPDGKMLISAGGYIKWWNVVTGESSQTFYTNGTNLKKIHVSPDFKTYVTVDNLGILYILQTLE

Caspase-6 = target: T6, Caspase-6 (Homo sapiens, UniProt P55212); experiment: inhibition of CASP6 peptide cleavage – biochemical, VEID-R110 fluorescence, cherry-pick, dose response (AID 720632)
T6 sequence (P55212 whole entry): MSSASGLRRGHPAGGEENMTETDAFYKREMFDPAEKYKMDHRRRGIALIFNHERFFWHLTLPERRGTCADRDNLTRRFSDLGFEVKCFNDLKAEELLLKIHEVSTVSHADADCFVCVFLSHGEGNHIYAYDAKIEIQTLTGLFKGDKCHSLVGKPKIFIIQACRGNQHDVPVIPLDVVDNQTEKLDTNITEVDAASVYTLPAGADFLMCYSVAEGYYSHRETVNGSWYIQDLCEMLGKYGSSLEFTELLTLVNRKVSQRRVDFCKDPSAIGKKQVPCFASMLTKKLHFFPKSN

[15] = target: T3, Beta-adrenergic receptor kinase 1; experiment: blockers of aptamer binding to GRK2 – biochemical, flow cytometry beads, FAM-aptamer, powder set 1, dose response (AID 588720)
[16] = target: Glycogen synthase kinase-3 alpha (Homo sapiens, UniProt P49840); experiment: Inhibition of Human GSK-3 alpha Activity Measured in Biochemical System Using Microfluidics - 2063-06_Inhibitor_Dose_DryPowder_Activity. [Related pubchem assays (depositor defined):AID2709]
Chain of Glycogen synthase kinase-3 alpha (P49840 whole entry): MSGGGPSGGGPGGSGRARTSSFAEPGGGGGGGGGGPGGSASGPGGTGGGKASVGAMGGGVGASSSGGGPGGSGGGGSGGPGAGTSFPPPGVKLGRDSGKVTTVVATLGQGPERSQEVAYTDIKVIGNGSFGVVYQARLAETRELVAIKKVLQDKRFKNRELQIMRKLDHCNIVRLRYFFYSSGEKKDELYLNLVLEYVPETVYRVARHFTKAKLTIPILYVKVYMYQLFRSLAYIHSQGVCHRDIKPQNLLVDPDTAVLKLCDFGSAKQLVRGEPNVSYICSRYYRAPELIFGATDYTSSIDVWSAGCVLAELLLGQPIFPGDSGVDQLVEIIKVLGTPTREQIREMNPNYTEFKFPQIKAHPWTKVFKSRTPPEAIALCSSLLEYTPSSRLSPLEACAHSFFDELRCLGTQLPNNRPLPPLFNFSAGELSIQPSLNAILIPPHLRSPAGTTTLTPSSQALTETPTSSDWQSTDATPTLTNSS

[17] = target: Glycogen synthase kinase-3 beta (Homo sapiens, UniProt P49841); experiment: Inhibition of Human GSK-3 beta Activity Measured in Biochemical System Using Microfluidics - 2063-05_Inhibitor_Dose_DryPowder_Activity. [Related pubchem assays (depositor defined):AID2709]
Chain of Glycogen synthase kinase-3 beta (P49841 whole entry): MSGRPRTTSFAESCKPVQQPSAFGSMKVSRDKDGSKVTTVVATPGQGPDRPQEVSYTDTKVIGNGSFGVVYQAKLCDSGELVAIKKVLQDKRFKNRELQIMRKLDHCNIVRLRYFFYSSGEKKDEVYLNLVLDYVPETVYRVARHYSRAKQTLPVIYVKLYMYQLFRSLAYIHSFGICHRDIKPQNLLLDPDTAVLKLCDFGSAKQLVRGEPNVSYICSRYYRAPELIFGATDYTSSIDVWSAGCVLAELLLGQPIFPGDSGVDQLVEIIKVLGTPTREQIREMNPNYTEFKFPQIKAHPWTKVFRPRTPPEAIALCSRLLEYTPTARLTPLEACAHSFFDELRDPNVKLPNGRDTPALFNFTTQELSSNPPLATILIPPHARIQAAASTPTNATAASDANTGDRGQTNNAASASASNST

[18] = loss of viability in HepG2 cells – cell-based, CellTiter-Glo, cherry-picked, cytotoxicity control for Shn3 inhibitor project, dose response (AID 624134); format: functional
[19] = Lymphoblastoid Cells (LCL) Cytotoxicity Secondary Assay Measured in Cell-Based System Using Plate Reader - 2122-03_Inhibitor_Dose_CherryPick_Activity_Set2. [Related pubchem assays (depositor defined):AID504586]
HEK293 [20] = experiment: EBV LMP1 TES2 canonical NF-kB signalling blockers – cell-based, HEK293, luciferase, cherry-pick, dose response (AID 588343); format: functional; conditions: Homo sapiens
[21] = reduction of Shn3 3'UTR-driven luciferase in osteoblasts – cell-based, Clone20 osteoblasts, firefly luciferase, cherry-picked, dose response (AID 624132); format: functional;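 note: firefly luciferase luminescence from reporter carrying the Shn3 3'UTR in osteoblasts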
[22] = non-specific 3'UTR reporter inhibition in Clone20-Shn3RL – cell-based, Renilla luciferase, cherry-picked, counter-screen for Shn3 inhibitor project, dose response (AID 624133); format: functional
HEK293 [23] = experiment: HEK293T cell viability loss, resazurin readout – resazurin fluorescence, cytotoxicity control for NF-kB activator project, SAR follow-up (AID 493251); format: functional, cell-based; conditions: Homo sapiens
Jurkat = experiment: SAR Analysis of small molecule inhibitors of T-cell specific antigen receptor-induced NF-kB activation in a Jurkat cell line using a luminescence assay - Set 2. [Related pubchem assays (depositor defined):AID435003, AID435012, AID465]; format: functional, cell-based; conditions: Homo sapiens
HEK293 [24] = experiment: SAR Analysis of small molecule inhibitors of T-cell specific antigen receptor-induced NF-kB activation in a HEK-293T cell line using a luminescence assay - Set 2. [Related pubchem assays (depositor defined):AID435003, AID435012, AID489026]; format: functional, cell-based; conditions: Homo sapiens
Candida albicans [25] = experiment: fluconazole-resistant Candida strain growth inhibitors – CaCi-8 strain, dry powder, set 4, dose response (AID 488950); format: functional, organism-based
Candida albicans [26] = experiment: C. albicans growth inhibition with fluconazole – CaCi-2 strain, Alamar Blue, dry powder, set 4, dose response (AID 488943); format: functional, organism-based
Candida albicans [27] = experiment: resistant Candida growth with fluconazole co-treatment – CaCi-8 strain, Alamar Blue, dry powder, set 2, dose response (AID 488909); format: functional, organism-based
Candida albicans [28] = experiment: Candida growth reduction in fluconazole presence – CaCi-2 strain, Alamar Blue, dry powder, set 2, antifungal resistance reversal project, dose response (AID 488930); format: functional, organism-based

Chain of Luciferin 4-monooxygenase (P08659 whole entry): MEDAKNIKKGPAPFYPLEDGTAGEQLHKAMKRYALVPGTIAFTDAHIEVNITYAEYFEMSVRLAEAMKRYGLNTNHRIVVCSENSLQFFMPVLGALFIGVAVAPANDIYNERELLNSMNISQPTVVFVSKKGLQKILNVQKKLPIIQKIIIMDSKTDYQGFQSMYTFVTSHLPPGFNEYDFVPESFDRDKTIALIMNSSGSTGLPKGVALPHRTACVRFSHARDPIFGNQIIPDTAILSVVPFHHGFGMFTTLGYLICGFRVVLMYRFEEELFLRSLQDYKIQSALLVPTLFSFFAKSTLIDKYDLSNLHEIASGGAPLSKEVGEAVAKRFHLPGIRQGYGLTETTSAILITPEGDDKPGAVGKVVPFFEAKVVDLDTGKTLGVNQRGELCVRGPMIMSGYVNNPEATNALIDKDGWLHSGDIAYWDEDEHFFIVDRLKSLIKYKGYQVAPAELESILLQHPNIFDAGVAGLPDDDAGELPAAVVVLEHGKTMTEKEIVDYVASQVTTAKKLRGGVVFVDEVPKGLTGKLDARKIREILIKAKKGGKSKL

COc1ccc(-c2cc3c(nn2)-c2ccccc2C3=O)cc1
EC50 [1]: 0.384 µM (active)
EC50 [2]: > 60 µM (not active)
AC50 [3]: 23.4 µM (active)
EC50 [4]: 0.375 µM (inconclusive)
EC50 (Beta-galactosidase): > 40 µM (inactive)
AC50 [5]: 4.22 µM (active)
AC50 [6]: 15.8 µM (active)
AC50 [7]: 5.11 µM (active)
AC50 (A-375): 20.2 µM (active)
IC50 [8]: 6.98 µM (active)
AC50 [9]: 4.41 µM (active)
EC50 [10]: 6.87 µM (active)
AC50 [11]: 29.2 µM (active)

COc1ccc([N+](=O)[O-])cc1NC(=O)CCS(=O)(=O)c1ccc(Br)cc1
AC50 (Caspase-7): > 70 µM (inactive)
EC50 [12]: 15 µM (inactive)
IC50 [13]: 4.79 µM (active)
AC50 (Protein S100-A4): 4.1 µM (active)
EC50 [14]: 12.2 µM (active)
AC50 (Caspase-6): 3.61 µM (active)
EC50 [15]: 1.45 µM (active)

Nc1nc(NCCCN2CCOCC2)nc(Nc2cccc(F)c2)c1[N+](=O)[O-]
AC50 [16]: 0.698 µM (active)
AC50 [17]: 0.208 µM (active)

CCc1cc2c(N3CCN(c4ccccc4)CC3)ncnc2s1
AC50 [18]: 34 µM (active)
AC50 [19]: 26.2 µM (active)
AC50 (HEK293 [20]): 26.7 µM (active)
AC50 [21]: 6.18 µM (active)
AC50 [22]: 11.3 µM (active)

COc1ccc(C(=O)Nc2ccc(NC(=O)c3cc4ccccc4o3)cc2)cc1Cl
IC50 (HEK293 [23]): > 80 µM (inactive)
IC50 (Jurkat): > 79 µM (inactive)
IC50 (HEK293 [24]): > 80 µM (inactive)

O=C(c1ccc(Cl)cc1)C1CCN(c2ccnc3cc(Cl)ccc23)CC1
AC50 (Candida albicans [25]): 0.579 µM (active)
AC50 (Candida albicans [26]): 0.342 µM (active)
AC50 (Candida albicans [27]): 3.81 µM (active)
AC50 (Candida albicans [28]): 0.663 µM (active)
